In publication PMC10408569, “Recruitment of hexahydroquinoline as anticancer scaffold targeting inhibition of wild and mutants EGFR (EGFR^WT, EGFR^T790M, and EGFR^L858R)” (Journal of Enzyme Inhibition and Medicinal Chemistry, 2023):

Legend:
PC-3 = assay: NCI-60 anticancer screening (SRB); assay type: cell-based; conditions: Homo sapiens; PC-3, prostate cancer; one dose 10 μM; read-out: Growth Inhibition Percentage (GI %)
HCT-15 = assay: NCI-60 anticancer screening (SRB); assay type: cell-based; conditions: Homo sapiens; HCT-15, colon cancer; one dose 10 μM; read-out: Growth Inhibition Percentage (GI %)
A549/ATCC = assay: NCI-60 anticancer screening (SRB); assay type: cell-based; conditions: Homo sapiens; A549/ATCC, NSC lung cancer; one dose 10 μM; read-out: Growth Inhibition Percentage (GI %)
MOLT-4 = assay: NCI-60 anticancer screening (SRB); assay type: cell-based; conditions: Homo sapiens; MOLT-4, leukemia; one dose 10 μM; read-out: Growth Inhibition Percentage (GI %)
A498 = assay: NCI-60 anticancer screening (SRB); assay type: cell-based; conditions: Homo sapiens; A498, renal cancer; one dose 10 μM; read-out: Growth Inhibition Percentage (GI %)
HL-60(TB) = assay: NCI-60 anticancer screening (SRB); assay type: cell-based; conditions: Homo sapiens, leukemia, one dose 10 μM, read-out: Growth Inhibition Percentage (GI %)
MDA-MB-435 = assay: NCI-60 anticancer screening (SRB); assay type: cell-based; conditions: Homo sapiens; MDA-MB-435, melanoma; one dose 10 μM; read-out: Growth Inhibition Percentage (GI %)
HT29 = assay: NCI-60 anticancer screening (SRB); assay type: cell-based; conditions: Homo sapiens, HT-29; HT29, colon cancer; one dose 10 μM; read-out: Growth Inhibition Percentage (GI %)
OVCAR-8 = assay: NCI-60 anticancer screening (SRB); assay type: cell-based; conditions: Homo sapiens; OVCAR-8, ovarian cancer; one dose 10 μM; read-out: Growth Inhibition Percentage (GI %)
CAKI-1 = assay: NCI-60 anticancer screening (SRB); assay type: cell-based; conditions: Homo sapiens; CAKI-1, renal cancer; one dose 10 μM; read-out: Growth Inhibition Percentage (GI %)
NCI-H460 = assay: NCI-60 anticancer screening (SRB); assay type: cell-based; conditions: Homo sapiens; NCI-H460, NSC lung cancer; one dose 10 μM; read-out: Growth Inhibition Percentage (GI %)
SNB-75 = assay: NCI-60 anticancer screening (SRB); assay type: cell-based; conditions: Homo sapiens; SNB-75, CNS cancer; one dose 10 μM; read-out: Growth Inhibition Percentage (GI %)
MDA-MB-231 = assay: NCI-60 anticancer screening (SRB); assay type: cell-based; conditions: Homo sapiens; MDA-MB-231, breast cancer; one dose 10 μM; read-out: Growth Inhibition Percentage (GI %)
M14 = assay: NCI-60 anticancer screening (SRB); assay type: cell-based; conditions: Homo sapiens; M14, melanoma; one dose 10 μM; read-out: Growth Inhibition Percentage (GI %)
SW-620 = assay: NCI-60 anticancer screening (SRB); assay type: cell-based; conditions: Homo sapiens; SW-620, colon cancer; one dose 10 μM; read-out: Growth Inhibition Percentage (GI %)
SK-OV-3 = assay: NCI-60 anticancer screening (SRB); assay type: cell-based; conditions: Homo sapiens; SK-OV-3, ovarian cancer; one dose 10 μM; read-out: Growth Inhibition Percentage (GI %)
IGROV1 = assay: NCI-60 anticancer screening (SRB); assay type: cell-based; conditions: Homo sapiens, IGROV-1; IGROV1, ovarian cancer; one dose 10 μM; read-out: Growth Inhibition Percentage (GI %)
HOP-92 = assay: NCI-60 anticancer screening (SRB); assay type: cell-based; conditions: Homo sapiens; HOP-92, NSC lung cancer; one dose 10 μM; read-out: Growth Inhibition Percentage (GI %)
SK-MEL-5 = assay: NCI-60 anticancer screening (SRB); assay type: cell-based; conditions: Homo sapiens; SK-MEL-5, melanoma; one dose 10 μM; read-out: Growth Inhibition Percentage (GI %)
SR = assay: NCI-60 anticancer screening (SRB); assay type: cell-based; conditions: Homo sapiens, leukemia, one dose 10 μM, read-out: Growth Inhibition Percentage (GI %)
HOP-62 = assay: NCI-60 anticancer screening (SRB); assay type: cell-based; conditions: Homo sapiens; HOP-62, NSC lung cancer; one dose 10 μM; read-out: Growth Inhibition Percentage (GI %)
EKVX = assay: NCI-60 anticancer screening (SRB); assay type: cell-based; conditions: Homo sapiens, NSC lung cancer, one dose 10 μM, read-out: Growth Inhibition Percentage (GI %)
MALME-3M = assay: NCI-60 anticancer screening (SRB); assay type: cell-based; conditions: Homo sapiens, melanoma, one dose 10 μM, read-out: Growth Inhibition Percentage (GI %)
UACC-257 = assay: NCI-60 anticancer screening (SRB); assay type: cell-based; conditions: Homo sapiens; UACC-257, melanoma; one dose 10 μM; read-out: Growth Inhibition Percentage (GI %)
OVCAR-4 = assay: NCI-60 anticancer screening (SRB); assay type: cell-based; conditions: Homo sapiens; OVCAR-4, ovarian cancer; one dose 10 μM; read-out: Growth Inhibition Percentage (GI %)
K-562 = assay: NCI-60 anticancer screening (SRB); assay type: cell-based; conditions: Homo sapiens, K562; K-562, leukemia; one dose 10 μM; read-out: Growth Inhibition Percentage (GI %)
UACC-62 = assay: NCI-60 anticancer screening (SRB); assay type: cell-based; conditions: Homo sapiens; UACC-62, melanoma; one dose 10 μM; read-out: Growth Inhibition Percentage (GI %)
SK-MEL-28 = assay: NCI-60 anticancer screening (SRB); assay type: cell-based; conditions: Homo sapiens; SK-MEL-28, melanoma; one dose 10 μM; read-out: Growth Inhibition Percentage (GI %)
786-0 = assay: NCI-60 anticancer screening (SRB); assay type: cell-based; conditions: Homo sapiens; 786-0, renal cancer; one dose 10 μM; read-out: Growth Inhibition Percentage (GI %)
T-47D = assay: NCI-60 anticancer screening (SRB); assay type: cell-based; conditions: Homo sapiens, T47D, breast cancer, one dose 10 μM, read-out: Growth Inhibition Percentage (GI %)
NCI 60 cancer cell lines = assay: NCI-60 anticancer screening (SRB), whole panel; assay type: cell-based, human; conditions: mean across the NCI-60 panel; one dose 10 μM
KM 12 = assay: NCI-60 anticancer screening (SRB); assay type: cell-based; conditions: Homo sapiens, KM12; KM 12, colon cancer; one dose 10 μM; read-out: Growth Inhibition Percentage (GI %)

Compound `CCOC(=O)C1=C(N)N(c2ccc(Cl)cc2)C2=C(C(=O)CC(C)(C)C2)C1c1cccnc1` (racemic) [12f, (±)-Ethyl 2-amino-1–(4-chlorophenyl)-7,7-dimethyl-5-oxo-4-(pyridin-3-yl)-1,4,5,6,7,8-hexahydroquinoline-3-carboxylate] has an inhibition at 10 µM (PC-3) of under 10%, an inhibition at 10 µM (HCT-15) of under 10% and an inhibition at 10 µM (A549/ATCC) of 15%. For the same compound, the inhibition at 10 µM (MOLT-4) was under 10%, the inhibition at 10 µM (A498) was under 10% and the inhibition at 10 µM (HL-60(TB)) was under 10%. For the same compound, the inhibition at 10 µM (MDA-MB-435) was under 10%, the inhibition at 10 µM (HT29) was under 10% and the inhibition at 10 µM (OVCAR-8) was under 10%. For the same compound, the inhibition at 10 µM (CAKI-1) was under 10%, the inhibition at 10 µM (NCI-H460) was under 10% and the inhibition at 10 µM (SNB-75) was 21%. The inhibition at 10 µM (MDA-MB-231) was under 10%, the inhibition at 10 µM (M14) was under 10% and the inhibition at 10 µM (SW-620) was under 10%. It also gave an inhibition at 10 µM (SK-OV-3) of under 10%, an inhibition at 10 µM (IGROV1) of under 10% and an inhibition at 10 µM (HOP-92) of under 10%. The inhibition at 10 µM (SK-MEL-5) was under 10%, the inhibition at 10 µM (SR) was under 10% and the inhibition at 10 µM (HOP-62) was under 10%. For the same compound, the melting point was 261 to 263 °C, the inhibition at 10 µM (EKVX) was under 10% and the inhibition at 10 µM (MALME-3M) was under 10%. It also gave an inhibition at 10 µM (UACC-257) of under 10%, an inhibition at 10 µM (OVCAR-4) of 13% and an inhibition at 10 µM (K-562) of under 10%. For the same compound, the inhibition at 10 µM (UACC-62) was under 10%, the inhibition at 10 µM (SK-MEL-28) was under 10% and the inhibition at 10 µM (786-0) was under 10%. The inhibition at 10 µM (T-47D) was 25%, the GI % mean (NCI 60 cancer cell lines) was “- ((-) = GI % mean less than 10)” and the inhibition at 10 µM (KM 12) was under 10%.
